EP3441076A1, “PHARMACEUTICAL PRODUCT FOR TREATING TUMOR AND COMBINED IMMUNE DEFECT, AND PREPARATION AND APPLICATION THEREOF” (Beijing Lu De Kai Qi Co., Ltd., priority 2016, dated 2017)
Read-outs that look alike come from different tables or passages of the source. Marks after values point to notes of the source that are not given here.

Assays:
[1] = system: sperm
Description: Test materials: The walnut extract, the wormwood extract, and the clove bud extract were all prepared in the same manner as in Example 1. The walnut extract, the wormwood extract, and the clove bud extract were respectively subjected to a water bath at 70°C for 1 hour, soaked for 12 hours, and concentrated for testing.
(§1) The healthy Kunming mice provided by the Experimental Animal Center of the National Institute for the Control of Pharmaceutical and Biological Products were selected.
Fifty sexually mature male mice weighing 30-35 g were randomly divided into 5 groups. […] The doses of the anti-tumor pharmaceutical product for combined immunization according to the present invention were 1.25, 2.50, and 5.00 g/kg•bw, and the desired concentration were adjusted with distilled water. The mice were administered via oral gavage once a day for 5 days, and the animals were sacrificed 30 days after the last gavage. The epididymis was acquired and sectioned and stained with eosin. Five animals were counted in each group and 1000 intact sperm were counted per animal. The incidence of sperm abnormality (in percentage) was calculated and statistically processed.

[2] = system: polychromatic erythrocytes in bone marrow of mice; settings: for Number of micronucleus (in Ge) / Micronucleus rate: 50 mg/kg•bw, positive control; for Number of micronucleus (in Ge): 5000 cells examined; for Micronucleus rate: P<0.01 vs negative control
Description: The walnut extract, the wormwood extract, and the clove bud extract were respectively subjected to a water bath at 70°C for 1 hour, soaked for 12 hours, and concentrated for testing.
as §1
The test was carried out via oral gavage and the administration was performed twice at intervals of 24 hrs. 50 mice weighing 25-30 g were randomly divided into 5 groups according to body weight, 10 in each group, half male and half female. […] The doses of the anti-tumor pharmaceutical product for combined immunization according to the present invention were 1.25, 2.50, and 5.00 g/kg•bw, respectively, and the desired concentrations were adjusted with distilled water. The animals were sacrificed by cervical dislocation six hours after the last administration of the anti-tumor pharmaceutical product for combined immunization according to the present invention. The bone marrow of sternum was acquired and diluted with calf serum, smeared, fixed with methanol, and stained with Giemsa. Under the light microscope, 1000 polychromatic erythrocytes (PRC) were counted per animal, and the incidence of micronucleus was calculated by the permillage of micronucleus-containing PRC and statistically processed.

[3] = all dose groups, statistical comparison with distilled water group

SMILES: O=P1(N(CCCl)CCCl)NCCCO1 (centres unmarked) [cp, cyclophosphamide]
- difference in incidence of sperm abnormality from the negative control group [1, 3]: extremely significant
- Number of abnormal sperms (in Ge) ([1]; male mice, 40 mg/kg•bw, positive control, 5000 sperms examined): 517
- Rate of sperm abnormality ([1]; male mice, 40 mg/kg•bw, positive control, P<0.01 vs negative control): 10.34* %
- Number of micronucleus (in Ge) ([2]; Female mice): 144
- Micronucleus rate ([2]; Female mice): 28.8* ‰
- Number of micronucleus (in Ge) ([2]; Male mice): 164
- Micronucleus rate ([2]; Male mice): 32.8* ‰
- difference in micronucleus rate from the negative control group [2, 3]: extremely significant
